Measurements taken from patent US8008259B2, “Neurotrophin-derived peptide sequences” (Copenhagen University, Techtrans Unit, priority 2005, dated 2011).

Assays:
[1] = biological target: TrkC (Homo sapiens, UniProt Q16288); experiment: Surface Plasmon Resonance binding to immobilized TrkC; conditions: SPR, 25° C., HBS-EP buffer pH 7.4, receptor immobilized on CM4 chip
Procedure: The TrkA, TrkB and TrkC receptors and p75^NTR were immobilized on a sensor chip, CM4, using an amine-coupling kit as follows: the chip was activated by 20 μl activation solution, N-hydroxysuccinimide, (NHS) and N-ethyl-N′-(3-[…])-carbodiimide (EDC), the protein was immobilized using 30 μl of a mixture of 4 μl (0.5 μg/ml) protein in 50 μl 10 mM sodium acetate buffer (pH 4.0); and the chip was blocked by 35 μl blocking solution (ethanolamine-HCl). The receptor surface was regenerated between ligand injections with 15 μl 2 mM NaCl or 10 mM glycine-HCl, pH 2.5. In the present experiments a flow rate of 5 μl/min was used.
The curve corresponding to the difference between binding to the Trk receptors or the […] receptor and a blank chip was used for analysis.

[2] = tested on: cerebellar granule neurons (CGN); experiment: Neurite outgrowth of primary cerebellar granule neurons in culture; assay type: cell-based, rat; conditions: CGN from 7 day old rats, peptide 3-81 μg/ml, 24 hours
Procedure: Dissociated cerebellar neurons were isolated from 7 day old rats. Cerebellum was isolated from the brain in ice cold modified Krebs Ringer solution, cleared of blood vessels, roughly homogenised by chopping and then trypsinised. The dissociated cells were washed in the presence of DNAse 1 and soybean trypsin inhibitor. Postnatal hippocampal neurons or cerebellar granule neurons (CGN) were plated at a density of 10,000 cells/cm^2 on uncoated 8-well permanox Lab-Tek chamber slides in Neurobasal medium supplemented with 0.4% (w/v) bovine serum albumin (BSA; Sigma-Aldrich), 2% (v/v) B27 Neurobasal supplement, 1% (v/v) glutamax, 100 U/ml penicillin, 100 μg/ml streptomycin and 2% 1 M HEPES (all from Gibco, BRL). After 24 hours, the neurons were fixed with 4% (v/v) formaldehyde for 20 minutes and thereafter immunostained using primary rabbit antibodies against GAP-43 and Alexa Fluor secondary goat anti-rabbit Ig antibodies. Images of at least 200 neurons for each group in each individual experiment were obtained systematically by computer assisted fluorescence microscopy as previously described (Rønn et al., 2000). Briefly, a Nikon Diaphot inverted microscope with a Nikon Plan 20× objective (Nikon, Tokyo, Japan) coupled to a video camera (Grundig Electronics, Germany) was used for recordings. A software package Prima developed at the Protein Laboratory (Copenhagen, Denmark) was used to make a stereologically based determination of neurite length (Rønn et al., 2000).
CGN prepared as described above were treated with different concentrations (3-81 μg/ml) of peptides NGF-C2, NGF-D, NGF-E, NGF-C1, NGF-EE, BDNF-E or BDNF-EE.

[3] = tested on: focal brain injury; experiment: Traumatic brain injury model (focal cryo-lesion of right fronto-parietal cortex), immunohistochemistry; assay type: in vivo, rat; conditions: lesioned rats, 10 mg/kg/injection subcutaneously on day (−1), 1 and 3
Procedure: (§1) A focal brain injury on the right fronto-parietal cortex was made by applying a piece of dry-ice (−78° C.) directly onto the skull for 30 seconds in mice and 60 seconds in rats, as previously described in details (Penkowa et al., 2003).
Histochemistry and immunohistochemistry were performed on sections cut from organs taken from fixated animals. Rats and mice were deeply anesthetized with Brietal and flushed by cardiac perfusion with saline containing heparine (0.9% NaCl, 3 ml/L 5000 IU heparine) for 2 minutes followed by fixation with Zamboni's fixative (pH 7.4) for 4-8 minutes depending on the size of the animal. For immunohistochemical investigation, brain were dissected and postfixed in Zamboni's for 2-3 hours, dehydraded in graded alcohol followed by xylol and subsequently embedded in paraffin before being cut in 3 μm frontal sections throughout the entire area of the cryo lesion. […]
Following treatment as described above, sections were incubated overnight at 5° C. with one of the following primary antibodies: polyclonal rabbit anti-cow glial fibrillary acidic protein (GFAP) 1:250 (a marker for astrocytes; DakoCytomation); monoclonal mouse anti-8-hydroxydeoxyguanosine (8-OH-dG) diluted 1:100 in goat serum (a marker for DNA oxidation; Chemicon, Temacula, Calif., USA). The primary antibody was detected with biotynilated secondary antibodies, incubated with streptavidin-biotin-peroxidase complex for 30 min. […]
as §1, with “In vivo experiments—A” for “A”, “2003). […] The primary antibody was detected with biotynilated secondary antibodies, incubated with streptavidin-biotin-peroxidase complex for 30 min. […]” for “2003).”

TrkC, sequence (Q16288 32-839, species assumed): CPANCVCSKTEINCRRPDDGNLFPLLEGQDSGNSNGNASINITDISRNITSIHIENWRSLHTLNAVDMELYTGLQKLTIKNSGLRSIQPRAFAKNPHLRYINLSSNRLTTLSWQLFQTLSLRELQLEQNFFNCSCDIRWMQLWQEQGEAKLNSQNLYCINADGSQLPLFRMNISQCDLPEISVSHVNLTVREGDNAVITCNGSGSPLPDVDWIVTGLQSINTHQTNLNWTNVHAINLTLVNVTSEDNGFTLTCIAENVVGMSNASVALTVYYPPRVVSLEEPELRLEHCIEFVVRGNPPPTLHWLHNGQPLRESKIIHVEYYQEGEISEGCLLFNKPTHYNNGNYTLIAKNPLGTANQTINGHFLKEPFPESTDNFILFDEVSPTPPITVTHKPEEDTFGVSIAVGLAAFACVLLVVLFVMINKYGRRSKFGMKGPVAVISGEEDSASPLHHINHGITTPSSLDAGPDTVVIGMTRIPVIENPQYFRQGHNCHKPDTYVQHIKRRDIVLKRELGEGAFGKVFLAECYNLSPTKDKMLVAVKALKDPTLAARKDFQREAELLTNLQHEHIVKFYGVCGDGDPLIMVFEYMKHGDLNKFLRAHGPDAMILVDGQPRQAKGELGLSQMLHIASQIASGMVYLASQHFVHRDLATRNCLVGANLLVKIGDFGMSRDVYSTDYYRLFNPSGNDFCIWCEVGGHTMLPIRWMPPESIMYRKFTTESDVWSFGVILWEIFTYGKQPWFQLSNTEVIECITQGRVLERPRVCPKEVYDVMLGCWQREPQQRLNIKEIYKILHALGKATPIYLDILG

Substance	neurite outgrowth from primary neurons in culture [2]	also measured
BDNF: Brain-derived neurotrophic factor, member of the neurotrophin family, reference ligand in SPR	–	Kd [1]: 14 nM
NGF-D: NGF-derived peptide, amino acids 2-14 of SEQ ID NO: 1 (YETKCRDPNPVDSG); lacks the hydrophobic residue of motif I (listed as Homo sapiens)	does not have neuritogenic activity	–
H-CVLSRKAVRRA-OH [NGF-C2]	significantly stimulate neurite outgrowth	–
H-TFVKALTMDGKQAAWR-OH [NGF-EE]	significantly stimulate neurite outgrowth	–
RIDTACV (listed as Homo sapiens) [NGF-C1, NGF-derived peptide, motif I]	significantly stimulate neurite outgrowth	–
H-RGIDSKHWNSY-OH [NGF-E]	significantly stimulate neurite outgrowth	–
H-RGIDKRHWNSQ-OH [BDNF-E]	significantly stimulate neurite outgrowth	–
H-SYVRALTMDSKKRIGWR-OH [BDNF-EE]	significantly stimulate neurite outgrowth	cortical astrocytes as reflected by immunostaining for GFAP [3]: activation of cortical astrocytes; microglia activation as reflected by binding of tomato lectin [3]: inhibition of microglia activation; oxidative stress as reflected by immunostaining for 8-hydroxydeoxyguanosine [3]: inhibition of oxidative stress
